Assay results as given in patent US20220331318A1, “USE OF AN MDM2 INHIBITOR FOR THE TREATMENT OF MYELOFIBROSIS” (Novartis AG, priority 2019, published 2022).

Columns and labels:
[1] = system: other major CYP enzymes or transporters; details: cited from earlier work
[2] = Preliminary PK analysis, Phase I/II study of ruxolitinib with siremadlin in myelofibrosis patients; assay type: in vivo, human; details: for Exposure compared with historical single-agent data: combination of ruxolitinib and siremadlin 20 mg QD
Description: (§1) A Randomized, Open-Label, Phase I/II Open Platform Study Evaluating Safety and Efficacy of Novel Ruxolitinib Combination in Myelofibrosis Patients
(§2) The purpose of this study is to investigate the safety, pharmacokinetics and preliminary efficacy of combination treatment of ruxolitinib with siremadlin in MF subjects. The study consists of three parts:
Dose reductions/interruptions were not taken into consideration for this preliminary PK analysis. Nominal times were used.
This study was not specifically designed to investigate the potential for PK drug interactions, however comparative assessment of historical data has been done. A PK DDI between ruxolitinib and siremadlin is unlikely or predicted to be low, based on PBPK analysis.

JAK3 = JAK3 (Homo sapiens, UniProt P52333); details: at clinically relevant concentrations; cited from earlier work
[3] = system: broad panel of 26 kinases; details: tested at 200 nM; cited from earlier work
CYP3A4/5 [4] = assay: CYP3A4/5 induction in vitro; assay type: in vitro ADME; details: net effect anticipated rather as an inhibitor than an inducer
myelofibrosis patients = assay: Safety (DLTs, SAEs), cohort 1 of Phase I/II study of siremadlin in combination with ruxolitinib in myelofibrosis patients; assay type: in vivo, human; details: 7 patients, cohort 1, 20 mg Siremadlin in combination with Ruxolitinib
Description: as §1, §2
Incidence and severity of dose limiting toxicity (DLTs) within the first 2 treatment cycles in Part 1 of the study
1 patient potentially not evaluable due to Siremadlin interruption within first 2 cycles of treatment. PK DDI between ruxolitinib and Siremadlin is unlikely or predicted to be low, based on PBPK analysis. As per statistical model the dose of Siremadlin can be increased to 30 mg or 40 mg D1-D5 in the next cohort.

[5] = system: solid and hematological tumors; details: preclinical and clinical PK/PD modeling (Guerreiro et al 2018, Meille et al 2017); cited from earlier work
AML subjects = assay: Phase I study HDM201X2101, single-agent siremadlin in solid tumors or hematologic malignancies (R/R AML); assay type: in vivo, human
Description: In this study, the selection of the siremadlin dose and regimen is based on the currently available preclinical and clinical safety, efficacy, PK and PK/PD modeling information from the phase I study HDM201X2101, a dose escalation and expansion study of single-agent siremadlin in patients with solid tumors or hematologic malignancies (R/R AML). At the time of data cut-off (15 Jan. 2018), 199 subjects have been treated applying various dosing regimens: 115 subjects with solid and 84 patients with hematological tumors. Safety and efficacy data from this trial in AML subjects was used to determine a recommended Phase 2 dose regimen of 45 mg once a day (QD) from day 1 to day 7 of a 28-day cycle (regimen 2C) which is disclosed in WO/2018/178925 (incorporated herewith by reference), At this dose regimen, Complete Response/Complete Response with incomplete blood count recovery (CR/CRi) were respectively 2/4 subjects out of 24 (25%).

CYP3A4/5 [6] = assay: CYP3A4/5 inhibition in vitro; assay type: in vitro ADME
BCRP = target: T1, BCRP (Homo sapiens, UniProt Q9UNQ0); assay: BCRP substrate assessment in vitro; assay type: in vitro ADME
T1 sequence (Q9UNQ0 1-655): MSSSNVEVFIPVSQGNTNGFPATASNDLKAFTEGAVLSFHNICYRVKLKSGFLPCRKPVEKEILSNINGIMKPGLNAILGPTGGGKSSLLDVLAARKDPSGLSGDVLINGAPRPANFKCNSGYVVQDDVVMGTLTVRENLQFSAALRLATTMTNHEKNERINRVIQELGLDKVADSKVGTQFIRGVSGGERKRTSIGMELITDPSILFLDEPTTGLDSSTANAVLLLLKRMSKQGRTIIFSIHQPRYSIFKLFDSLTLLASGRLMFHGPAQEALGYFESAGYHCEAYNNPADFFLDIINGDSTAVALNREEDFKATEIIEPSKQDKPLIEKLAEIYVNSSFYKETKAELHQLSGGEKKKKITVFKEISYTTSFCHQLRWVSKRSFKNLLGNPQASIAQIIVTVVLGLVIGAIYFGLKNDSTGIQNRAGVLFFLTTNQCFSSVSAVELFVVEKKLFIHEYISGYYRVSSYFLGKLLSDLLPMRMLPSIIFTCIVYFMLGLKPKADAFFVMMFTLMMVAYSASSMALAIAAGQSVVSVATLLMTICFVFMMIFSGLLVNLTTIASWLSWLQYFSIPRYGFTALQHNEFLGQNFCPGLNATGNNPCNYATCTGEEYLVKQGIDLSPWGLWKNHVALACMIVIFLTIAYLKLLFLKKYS

CYP3A4 = CYP3A4 (Homo sapiens, UniProt P08684); assay: Metabolism by CYP enzymes; assay type: in vitro ADME; details: siremadlin
P-gp = P-gp (Homo sapiens, UniProt P08183); assay: P-gp substrate assessment in vitro; assay type: in vitro ADME
[7] = AML, 45 mg QD day 1 to day 7 of a 28-day cycle (regimen 2C)

Chain of CYP3A4 (P08684 whole entry): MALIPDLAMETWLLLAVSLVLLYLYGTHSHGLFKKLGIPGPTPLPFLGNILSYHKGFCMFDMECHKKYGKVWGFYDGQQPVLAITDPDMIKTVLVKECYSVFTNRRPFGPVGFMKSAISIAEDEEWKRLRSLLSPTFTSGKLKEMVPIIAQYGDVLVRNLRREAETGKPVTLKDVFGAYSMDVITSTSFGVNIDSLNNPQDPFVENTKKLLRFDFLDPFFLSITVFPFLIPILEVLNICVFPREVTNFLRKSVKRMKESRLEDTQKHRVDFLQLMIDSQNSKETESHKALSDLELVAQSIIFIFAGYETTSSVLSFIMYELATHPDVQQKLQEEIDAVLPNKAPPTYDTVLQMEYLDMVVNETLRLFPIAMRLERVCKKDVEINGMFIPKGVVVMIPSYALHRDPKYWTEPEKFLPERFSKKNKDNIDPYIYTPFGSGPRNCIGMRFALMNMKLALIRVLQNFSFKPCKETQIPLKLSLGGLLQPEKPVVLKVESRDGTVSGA
Chain of P-gp (P08183 whole entry): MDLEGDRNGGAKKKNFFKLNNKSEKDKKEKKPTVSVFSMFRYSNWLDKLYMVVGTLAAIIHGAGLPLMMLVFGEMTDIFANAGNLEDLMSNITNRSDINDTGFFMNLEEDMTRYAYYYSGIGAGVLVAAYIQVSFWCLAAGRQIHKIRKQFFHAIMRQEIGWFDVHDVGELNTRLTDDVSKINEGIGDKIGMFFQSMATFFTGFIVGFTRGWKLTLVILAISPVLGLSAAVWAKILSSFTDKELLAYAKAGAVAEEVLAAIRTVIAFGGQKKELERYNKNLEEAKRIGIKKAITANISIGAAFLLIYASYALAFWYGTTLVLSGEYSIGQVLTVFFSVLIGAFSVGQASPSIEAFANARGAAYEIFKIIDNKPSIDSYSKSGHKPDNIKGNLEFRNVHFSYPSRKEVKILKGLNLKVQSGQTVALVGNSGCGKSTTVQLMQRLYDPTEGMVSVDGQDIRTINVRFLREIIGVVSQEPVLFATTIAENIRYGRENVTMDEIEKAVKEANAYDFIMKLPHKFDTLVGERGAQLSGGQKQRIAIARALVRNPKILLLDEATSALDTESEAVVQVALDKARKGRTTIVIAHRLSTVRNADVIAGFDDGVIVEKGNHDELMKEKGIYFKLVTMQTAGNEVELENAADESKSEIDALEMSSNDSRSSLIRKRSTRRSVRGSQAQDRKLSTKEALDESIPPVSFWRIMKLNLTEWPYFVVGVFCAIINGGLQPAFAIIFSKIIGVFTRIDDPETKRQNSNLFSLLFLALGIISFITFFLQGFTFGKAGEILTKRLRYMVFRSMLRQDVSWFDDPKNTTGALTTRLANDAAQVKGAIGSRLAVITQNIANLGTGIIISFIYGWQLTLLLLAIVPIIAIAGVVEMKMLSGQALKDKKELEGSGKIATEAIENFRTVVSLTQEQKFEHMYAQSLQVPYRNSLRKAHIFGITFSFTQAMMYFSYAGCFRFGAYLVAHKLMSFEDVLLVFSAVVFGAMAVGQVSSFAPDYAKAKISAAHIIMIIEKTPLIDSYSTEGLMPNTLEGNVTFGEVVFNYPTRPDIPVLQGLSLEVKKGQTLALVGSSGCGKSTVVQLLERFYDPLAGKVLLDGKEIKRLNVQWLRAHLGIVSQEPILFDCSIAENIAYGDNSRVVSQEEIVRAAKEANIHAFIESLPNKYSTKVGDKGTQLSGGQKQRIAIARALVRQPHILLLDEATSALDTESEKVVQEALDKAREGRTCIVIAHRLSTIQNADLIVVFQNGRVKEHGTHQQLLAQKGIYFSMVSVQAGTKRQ
Chain of JAK3 (P52333 whole entry): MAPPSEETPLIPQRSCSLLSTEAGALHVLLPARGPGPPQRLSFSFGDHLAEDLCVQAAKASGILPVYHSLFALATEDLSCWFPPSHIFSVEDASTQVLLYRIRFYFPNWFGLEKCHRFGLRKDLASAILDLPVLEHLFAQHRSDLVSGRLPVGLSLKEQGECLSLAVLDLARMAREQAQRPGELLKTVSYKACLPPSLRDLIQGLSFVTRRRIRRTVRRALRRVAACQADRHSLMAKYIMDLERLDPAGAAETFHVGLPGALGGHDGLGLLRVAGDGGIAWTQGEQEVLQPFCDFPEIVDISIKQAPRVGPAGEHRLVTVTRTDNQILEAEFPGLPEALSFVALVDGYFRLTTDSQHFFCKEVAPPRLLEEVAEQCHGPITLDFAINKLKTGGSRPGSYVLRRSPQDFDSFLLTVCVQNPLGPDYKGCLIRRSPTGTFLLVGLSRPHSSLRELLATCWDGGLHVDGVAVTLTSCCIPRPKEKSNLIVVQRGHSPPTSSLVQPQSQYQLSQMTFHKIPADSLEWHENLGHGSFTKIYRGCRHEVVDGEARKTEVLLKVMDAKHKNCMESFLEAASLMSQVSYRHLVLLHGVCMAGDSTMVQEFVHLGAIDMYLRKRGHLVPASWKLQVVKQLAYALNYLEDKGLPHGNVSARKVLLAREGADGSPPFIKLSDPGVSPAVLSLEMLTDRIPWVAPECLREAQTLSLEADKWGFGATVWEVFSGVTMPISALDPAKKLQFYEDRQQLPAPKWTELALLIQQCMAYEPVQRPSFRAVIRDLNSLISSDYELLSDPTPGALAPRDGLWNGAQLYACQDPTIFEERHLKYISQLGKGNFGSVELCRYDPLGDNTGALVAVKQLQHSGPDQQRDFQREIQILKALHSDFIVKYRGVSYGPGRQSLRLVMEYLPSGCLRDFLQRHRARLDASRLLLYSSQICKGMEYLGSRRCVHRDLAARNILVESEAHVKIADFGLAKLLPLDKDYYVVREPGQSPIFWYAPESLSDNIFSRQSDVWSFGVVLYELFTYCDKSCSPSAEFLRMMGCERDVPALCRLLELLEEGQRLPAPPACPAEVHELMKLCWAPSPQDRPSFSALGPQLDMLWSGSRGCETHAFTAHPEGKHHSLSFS

| SMILES | capacity to inhibit other major CYP enzymes or transporters [1] | Exposure compared with historical single-agent data ([2]; MF patients) | accumulation upon repeated dosing ([2]; MF patients, ruxolitinib 10, 15 or 20 mg BID with siremadlin) | half-life ([2]; human, in vivo, oral, 20 mg) | inhibition of JAK3 (JAK3) | inhibition of a broad panel of 26 kinases [3] | induction of CYP3A4/5 (CYP3A4/5 [4]) | DLTs (myelofibrosis patients) | on treatment SAEs (myelofibrosis patients) | anti-tumor activity on reducing application from 7 to 5 consecutive days per 28-day cycle [5] | Complete Response (CR) (AML subjects; [7]) | Complete Response with incomplete blood count recovery (CRi) (AML subjects; [7]) | CR/CRi rate (AML subjects; AML, 45 mg QD day 1 to day 7 of a 28-day cycle (regimen 2C), 24 subjects) | dose-limiting toxicity (DLT) (AML subjects; hematological tumor patients, regimen 2C) | severity of adverse events (AML subjects; hematological tumor patients, regimen 2C, cytopenias most commonly observed) | most frequently reported adverse drug reactions in clinic (AML subjects; single agent) | inhibition of CYP3A4/5 (CYP3A4/5 [6]) | BCRP substrate (BCRP) | metabolizing enzyme (CYP3A4) | P-gp substrate (P-gp) |
| --- | --- | --- | --- | --- | --- | --- | --- | --- | --- | --- | --- | --- | --- | --- | --- | --- | --- | --- | --- | --- |
| N#CC[C@H](C1CCCC1)n1cc(-c2ncnc3[nH]ccc23)cn1 [ruxolitinib, (R)-3-(4-(7H-pyrrolo[2,3-d]pyrimidin-4-yl)-1H-pyrazol-1-yl)-3-cyclopentylpropanenitrile] | little or no capacity to inhibit | within the exposure range of values observed previously | little accumulation | 3 to 4 h | does not inhibit | < 30% |  |  |  |  |  |  |  |  |  |  |  |  |  |  |
| COc1ncc(-c2nc3c(n2C(C)C)[C@H](c2ccc(Cl)cc2)N(c2cc(Cl)cn(C)c2=O)C3=O)c(OC)n1 [siremadlin, (S)-5-(5-Chloro-1-methyl-2-oxo-1,2-dihydro-pyridin-3-yl)-6-(4-chloro-phenyl)-2-(2,4-dimethoxy-pyrimidin-5-yl)-1-isopropyl-5,6-dihydro-1H-pyrrolo[3,4-d]imidazol-4-one] |  | comparable to exposures observed previously |  |  |  |  | inducer | no DLTs | no on treatment SAEs | maintains equivalent anti-tumor activity | 2 subjects out of 24 | 4 subjects out of 24 | 25% | tumor lysis syndrome (TLS) | mild to moderate in severity, reversible and manageable | hematological toxicities including thrombocytopenia, neutropenia and anemia | time-dependent inhibitor and a reversible inhibitor | substrate | predominantly metabolized by CYP3A4 | substrate |
